Laboratory results: US11013745B2, “Triazolopyrimidine, triazolopyridine compounds, and the composition thereof for treating PRC2-mediated diseases” (SHANGHAI INSTITUTE OF MATERIA MEDICA, CHINESE ACADEMY OF …, priority 2017, dated 2021)
Read-outs that look alike come from different tables or passages of the source.

Tests used:
[1] = target: PRC2 enzyme (Homo sapiens (Human), UniProt O75530); assay: PRC2 enzyme activity, TR-FRET method; format: biochemical
Procedure: The TR-FRET method was used to measure the PRC2 enzyme activity. First, the enzyme was mixed with compounds at different concentrations and incubated for 30 min at room temperature. The biotin-labeled histone H3 peptide substrate and the cofactor S-adenosylmethionine (SAM) were added to initiate the enzymatic reaction. After reaction was performed at room temperature for 4 hour, Acceptor and Donor were added and incubated for half an hour. The multifunctional microplate reader EnVision (Perkin Elmer Inc.) was used to detect the fluorescence signal. Data were analyzed using GraphPad Prism 5.0 software, and IC50 values were obtained.

[2] = system: Pfeiffer cells; assay: Pfeiffer cell growth inhibition in a long term (11 days), CellTiter-Glo; format: cell-based, Human; details: Homo sapiens, 264 h, read-out: Experiment on Pfeiffer cell growth inhibition in a long term (11 days IC50)
Procedure: Pfeiffer cells in exponential growth phase were seeded in a 24-well plate with a cell density of 1*10E5 cells/mL. Cells were treated on the same day with the compounds at different concentrations. At day 4 and day 7 of compound treatment, fresh media and compounds were changed. After treated with the compounds for 11 days, cell viability was measured using CellTiter-Glo reagent (Promega Corporation). The data was analyzed using GraphPad Prism 5.0 software and GI50 values were obtained.

[3] = Liver microsomal stability (rat); format: in vitro ADME; details: rat liver microsomes
Procedure: (§1) 1. JANUS and temperature control device was turned on. After being initialized, the pipes were flushed until there was no air bubble in the pipes.
(§2) 2. Preparation of buffers used for the experiment
(§3) Preparation of Tris pH 7.4 buffer (0.1 M): 12.12 g of Tris was dissolved in 1000 mL of H2O, the resulting solution was adjusted to pH 7.4 with 2N HCl, aliquoted at 50 mL per tube, and stored at −20° C.
(§4) Preparation of H2O/0.1% BSA buffer: 200 μL of 25% BSA was added to 50 mL of H2O.
(§5) Preparation of VIVID stock solution: 1 mg of VIVID was dissolved in 1 mL of acetonitrile, aliquoted at 50 μL per tube, and stored at −20° C.
(§6) Preparation of MgCl2 solution (100 mM): 1.016 g of MgCl2 was dissolved in 50 mL Tris pH 7.4 buffer, and aliquoted at 1 mL per tube, and stored at −20° C.
(§7) Preparation of NADPH solution (10 mM): 355 mg of NADPH was dissolved in 42.6 mL of Tris pH 7.4 buffer, aliquoted at 1.8 mL per tube, and stored at −20° C.
(§8) Preparation of Blank control: 7.937 mL of Tris, 163 μL of RLM, 450 μL of MgCl2 solution, 450 μL of NADPH solution and 9 mL of methanol were mixed uniformly, aliquoted at 1 mL per tube, and stored at −20° C.
(§9) 3. Preparation of Compound Working Solution
(§10) Dilution step 1:10 μL of compound stock solution was added to 90 μL of DMSO=1 mM stock solution.
(§11) Dilution step 2: 2 μL of 1 mM stock solution was added to 1 mL of H2O/0.1%6 BSA buffer=[…] working solution.
(§12) Dilution step 3: 245 μL of the working solution was added to a 96-well compound plate and added with 5 μL of VIVID stock solution.
(§13) The 96-well compound plate was shaken on a shaker for 5 min.
(§14) 4. The STM in the JANUS in the computer was open to run the EXCEL file, and the JANUS program was operated and run by following the instructions in the EXCEL file.
(§15) 5. After the JANUS program was finished, acetonitrile/water 50:50 (V/V) was added to column 20 of the 384-well black plate, and blank control was added to column 21 of the 384-well black plate.
(§16) 6. the plate (420 nm-465 nm) was read on a microplate reader to determine the VIVID fluorescence intensity.
(§17) 7. After the plate was sealed, shaken and centrifuged, the sample plate was subjected to the LC/MS instrument for sample analysis.
(§18) A profile of the logarithmic value of the remaining rate of the drug in the incubation system versus the incubation time was plotted, and the slope k was obtained by linear regression. The intrinsic clearance rate in vivo (Clint, mL/min/g) value, the clearance rate in vivo (Cl, mL)/min), liver clearance (Clhep, mL/min) and metabolic bioavailability (% MF) were predicted according to the following equations: […]

[4] = Liver microsomal stability (human); format: in vitro ADME
Procedure: as §1, §2, §3, §4, §5, §6, §7, §8, §9, §10, §11, §12, §13, §14, §15, §16, §17, §18

[5] = Liver microsomal stability (mouse); format: in vitro ADME; details: mouse liver microsomes

Sequence of PRC2 enzyme (O75530 whole entry): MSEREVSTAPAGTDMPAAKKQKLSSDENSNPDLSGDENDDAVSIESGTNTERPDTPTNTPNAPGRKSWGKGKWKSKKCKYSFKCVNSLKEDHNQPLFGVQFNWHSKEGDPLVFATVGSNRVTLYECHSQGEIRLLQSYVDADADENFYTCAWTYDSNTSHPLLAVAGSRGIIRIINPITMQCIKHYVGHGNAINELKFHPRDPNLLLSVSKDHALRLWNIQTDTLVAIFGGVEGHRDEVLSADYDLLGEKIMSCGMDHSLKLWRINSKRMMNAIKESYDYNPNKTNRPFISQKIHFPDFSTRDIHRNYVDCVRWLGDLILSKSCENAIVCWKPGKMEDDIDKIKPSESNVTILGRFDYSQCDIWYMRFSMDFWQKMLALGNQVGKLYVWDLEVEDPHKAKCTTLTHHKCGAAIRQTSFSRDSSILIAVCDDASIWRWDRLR
Sequence of PRC2 enzyme (Q15910 whole entry partner): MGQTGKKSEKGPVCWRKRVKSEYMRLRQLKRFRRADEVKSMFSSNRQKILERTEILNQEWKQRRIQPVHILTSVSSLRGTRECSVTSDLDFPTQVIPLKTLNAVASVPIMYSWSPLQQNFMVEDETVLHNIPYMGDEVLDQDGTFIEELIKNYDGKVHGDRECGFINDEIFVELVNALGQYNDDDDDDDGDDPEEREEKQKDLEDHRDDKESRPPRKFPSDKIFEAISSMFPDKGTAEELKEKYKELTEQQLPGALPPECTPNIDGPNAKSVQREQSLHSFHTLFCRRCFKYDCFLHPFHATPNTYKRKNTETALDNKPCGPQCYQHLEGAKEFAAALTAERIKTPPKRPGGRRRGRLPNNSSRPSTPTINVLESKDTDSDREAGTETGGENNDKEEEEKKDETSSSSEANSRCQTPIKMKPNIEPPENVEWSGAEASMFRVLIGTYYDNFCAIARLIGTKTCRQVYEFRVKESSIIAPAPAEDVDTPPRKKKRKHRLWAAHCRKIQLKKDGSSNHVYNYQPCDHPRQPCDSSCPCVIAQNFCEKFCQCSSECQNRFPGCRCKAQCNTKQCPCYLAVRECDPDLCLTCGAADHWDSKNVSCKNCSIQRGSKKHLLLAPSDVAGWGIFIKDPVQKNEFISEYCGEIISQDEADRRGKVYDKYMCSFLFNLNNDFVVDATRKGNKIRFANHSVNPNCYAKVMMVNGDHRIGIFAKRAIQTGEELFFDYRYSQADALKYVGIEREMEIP
Sequence of PRC2 enzyme (Q15022 whole entry partner): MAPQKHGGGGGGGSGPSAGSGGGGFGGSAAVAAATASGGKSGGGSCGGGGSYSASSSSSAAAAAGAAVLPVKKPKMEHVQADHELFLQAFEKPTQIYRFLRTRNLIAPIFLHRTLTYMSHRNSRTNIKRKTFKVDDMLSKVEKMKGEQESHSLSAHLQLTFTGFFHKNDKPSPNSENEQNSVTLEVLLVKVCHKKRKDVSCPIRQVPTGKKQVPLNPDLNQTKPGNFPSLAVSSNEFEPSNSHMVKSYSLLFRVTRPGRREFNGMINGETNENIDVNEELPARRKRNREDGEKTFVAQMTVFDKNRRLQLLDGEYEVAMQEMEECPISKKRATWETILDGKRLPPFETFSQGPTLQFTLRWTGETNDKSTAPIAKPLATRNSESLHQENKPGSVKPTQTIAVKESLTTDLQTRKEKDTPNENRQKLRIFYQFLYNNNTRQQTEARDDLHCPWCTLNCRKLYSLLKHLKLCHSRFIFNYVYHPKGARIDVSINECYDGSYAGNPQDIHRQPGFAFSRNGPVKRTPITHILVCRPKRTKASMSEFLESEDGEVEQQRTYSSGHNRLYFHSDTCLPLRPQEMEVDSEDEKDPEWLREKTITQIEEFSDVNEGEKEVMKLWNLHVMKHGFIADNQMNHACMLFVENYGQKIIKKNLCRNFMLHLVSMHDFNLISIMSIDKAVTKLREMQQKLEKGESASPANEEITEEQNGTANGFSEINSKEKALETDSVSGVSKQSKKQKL

| SMILES | IC50 [1] [nM] | IC50 ([2]; 11 days) [nM] | also measured |
| --- | --- | --- | --- |
| CC(=O)NC1CC=C(c2cnc(NCc3ccco3)n3cnnc23)CC1 (stereo not shown) [E-Y30] | 793 |  |  |
| CCOC(=O)N1CC=C(c2cnc(NCc3c(F)ccc4c3CCO4)n3cnnc23)CC1 [SL-ZYE-148] | 4.7 | 1 to 3 |  |
| C1=C(c2cnc(NCc3cccc4occc34)n3cnnc23)CCOC1 [SL-ZYE-17] | 56 |  |  |
| CC(C)(C)OC(=O)N1CC=C(c2cc(C#N)c(NCc3ccco3)n3cnnc23)CC1 [E-Y51] | 200 |  |  |
| CC(C)(C)OC(=O)NC1CC=C(c2cnc(NCc3ccco3)n3cnnc23)CC1 (stereo not shown) [E-Y9] |  | 320 |  |
| CCNC(=S)N1CC=C(c2cnc(NCc3c(F)ccc4c3CCO4)n3cnnc23)CC1 [E-Y19] | 9.3 |  | IC50 [2]: 3 nM |
| COC(=O)N1CCC=C(c2cnc(NCc3c(F)ccc4c3CCO4)n3cnnc23)CC1 [SL-ZYE-183] | 2.2 |  |  |
| CN1CCC(c2cnc(NCc3c(F)ccc4c3CCO4)n3cnnc23)CC1 [SL-E25] | 15 |  |  |
| CC(C)(C)OC(=O)N1CC=C(c2cnc(NCc3cccc4occc34)n3cnnc23)CC1 [SL-ZYE-18] | 115 |  |  |
| Cc1ccc(NC(=O)N2CC=C(c3cnc(NCc4ccco4)n4cnnc34)CC2)cc1 [E-Y26] | 91 |  |  |
| CC(=O)N1CCC=C(c2cnc(NCc3c(F)ccc4c3CCO4)n3cnnc23)CC1 [SL-E13] | 3.3 | 6 |  |
| O=C(NC(=S)N1CC=C(c2cnc(NCc3c(F)ccc4c3CCO4)n3cnnc23)CC1)c1ccccc1 [E-Y39] | 54.5 |  |  |
| CC(C)(C)NC(=O)N1CCC(c2cnc(NCc3c(F)ccc4c3CCO4)n3cnnc23)CC1 [E-Y49] | 6.6 | 10 |  |
| Cc1ccc(S(=O)(=O)N2CC=C(c3cnc(NCc4c(F)ccc5c4CCO5)n4cnnc34)CC2)cc1 [E-Y14] | 101 |  |  |
| CC1(C)CC(c2cnc(NCc3c(F)ccc4c3CCO4)n3cnnc23)CCO1 (stereo not shown) [SL-ZYE-121] | 4.2 |  |  |
| O=C(c1ccccc1)N1CC=C(c2cnc(NCc3c(F)ccc4c3CCO4)n3cnnc23)CC1 [E-Y16] | 17.7 | 4.8 |  |
| C1=C(c2cnc(NCc3ccco3)n3cnnc23)CCSC1 [E-Y5] | 611 |  |  |
| Fc1ccc2c(c1CNc1ncc(C3=CCSCC3)c3nncn13)CCO2 [E-Y2] | 8 |  |  |
| CN(C)CC(=O)N1CC=C(c2cnc(NCc3c(F)ccc4c3CCO4)n3cnnc23)CC1 [E-Y54] | 4.1 |  | Clearance rate in vivo Clint In Vivo Extpl [3]: 10.0 mL/min; Half life T-half [3]: 1.57 h; Intrinsic clearance rate in vivo Clint In Vitro [3]: 22.3 mL/min/gprot; Liver clearance rate Clint Hep In Vivo Extpl [3]: 6.67 mL/min; Metabolic bioavailability MF % [3]: 66.6%; Clearance rate in vivo Clint In Vivo Extpl ([4]; human liver microsomes): 188 mL/min; Intrinsic clearance rate in vivo Clint In Vitro ([4]; human liver microsomes): 2.46 mL/min/gprot; Liver clearance rate Clint Hep In Vivo Extpl ([4]; human liver microsomes): 167 mL/min; half-life ([4]; human, liver microsomes, pH 7.4, human liver microsomes, read-out: Half life T-half): 14.2 h; bioavailability ([4]; human, liver microsomes, pH 7.4, human liver microsomes, read-out: Metabolic bioavailability MF %): 88.8%; Clearance rate in vivo Clint In Vivo Extpl [5]: 3.86 mL/min; Half life T-half [5]: 0.613 h; Intrinsic clearance rate in vivo Clint In Vitro [5]: 57.1 mL/min/gprot; Liver clearance rate Clint Hep In Vivo Extpl [5]: 1.69 mL/min; Metabolic bioavailability MF % [5]: 43.7% |
| O=C(OCc1ccccc1)N1CC=C(c2cnc(NCc3c(F)ccc4c3CCO4)n3cnnc23)CC1 [E-Y44] | 85.8 | 2.3 |  |
| CC(C)(C)NC(=O)N1CC=C(c2cnc(NCc3ccco3)n3cnnc23)CC1 [E-Y25] | 373 |  |  |

Further lines, with some results ahead:

| IC50 [1] [nM] | IC50 ([2]; 11 days) [nM] | SMILES | also measured |
| --- | --- | --- | --- |
| 3.2 |  | O=S1(=O)CCC(c2cnc(NCc3c(F)ccc4c3CCO4)n3cnnc23)CC1 [SL-ZYE-34] |  |
|  | 83 | CC(C)(C)OC(=O)N1CC=C(c2cnc(NCc3ccco3)n3cnnc23)CC1 [E-Y6] |  |
| 40.8 | 9 to 27 | CCC(=O)N1CC=C(c2cnc(NCc3c(F)ccc4c3CCO4)n3cnnc23)CC1 [SL-ZYE-161] |  |
| 342 |  | CS(=O)(=O)NC1CC=C(c2cnc(NCc3ccco3)n3cnnc23)CC1 (stereo not shown) [E-Y32] |  |
| 5 |  | CN(C)CC(=O)N1CC=C(c2cnc(NCc3c(F)ccc4c3CCO4)n3cnnc23)CC1 [E-Y54-H] | Clearance rate in vivo Clint In Vivo Extpl [3]: 4.26 mL/min; Half life T-half [3]: 3.7 h; Intrinsic clearance rate in vivo Clint In Vitro [3]: 9.47 mL/min/gprot; Liver clearance rate Clint Hep In Vivo Extpl [3]: 3.51 mL/min; Metabolic bioavailability MF % [3]: 82.4%; Clearance rate in vivo Clint In Vivo Extpl ([4]; human liver microsomes): 336 mL/min; Half life T-half ([4]; human liver microsomes): 7.98 h; Intrinsic clearance rate in vivo Clint In Vitro ([4]; human liver microsomes): 4.39 mL/min/gprot; Liver clearance rate Clint Hep In Vivo Extpl ([4]; human liver microsomes): 274 mL/min; Metabolic bioavailability MF % ([4]; human liver microsomes): 81.7%; Clearance rate in vivo Clint In Vivo Extpl [5]: 1.21 mL/min; Half life T-half [5]: 1.95 h; Intrinsic clearance rate in vivo Clint In Vitro [5]: 17.9 mL/min/gprot; Liver clearance rate Clint Hep In Vivo Extpl [5]: 0.862 mL/min; Metabolic bioavailability MF % [5]: 71.3% |
| 351 | 185 | O=C(c1ccccc1)N1CC=C(c2cnc(NCc3ccco3)n3cnnc23)CC1 [E-Y21] |  |
| 318 |  | CN(C)CC(=O)N1CC=C(c2cnc(NCc3ccco3)n3cnnc23)CC1 [E-Y35] |  |
|  | 1 to 3 | COC(=O)N1CC=C(c2cnc(NCc3c(F)ccc4c3CCO4)n3cnnc23)CC1 [SL-ZYE-147] |  |
| 758 |  | O=C(NC1CC=C(c2cnc(NCc3ccco3)n3cnnc23)CC1)c1ccccc1 (stereo not shown) [E-Y31] |  |
| < 20 | 4.5 | O=C(c1cnco1)N1CC=C(c2cnc(NCc3c(F)ccc4c3CCO4)n3cnnc23)CC1 [E-Y41] |  |
| 8.4 |  | CN1CCC(c2cnc(NCc3c(F)ccc4c3CCO4)n3cnnc23)CC1=O (stereo not shown) [SL-E26] |  |
| 543 | 289 | O=C(CN1CCOCC1)N1CC=C(c2cnc(NCc3ccco3)n3cnnc23)CC1 [E-Y36] |  |
| 22.3 |  | CC1(C)C=C(c2cnc(NCc3c(F)ccc4c3CCO4)n3cnnc23)CC(C)(C)O1 [SL-ZYE-195] |  |
| 3.6 |  | CC1(C)C=C(c2cnc(NCc3c(F)ccc4c3CCO4)n3cnnc23)CCO1 [SL-ZYE-120] |  |
| 47.6 |  | CC1C=C(c2cnc(NCc3c(F)ccc4c3CCO4)n3cnnc23)CC(C)N1C(=O)OC(C)(C)C (stereo not shown) [SL-ZYE-23] |  |
| 166 | 158 | CC(=O)N1CC=C(c2cnc(NCc3ccco3)n3cnnc23)CC1 [E-Y20] |  |
| 17.9 |  | C1=C(c2cnc(NCc3cccc4c3CCO4)n3cnnc23)CCOC1 [SL-ZYE-11] |  |
|  | 2.7 | CCNC(=O)N1CC=C(c2cnc(NCc3c(F)ccc4c3CCO4)n3cnnc23)CC1 [E-Y17] |  |
| 5.4 | 15.9 | CCNC(=O)N1CCC(c2cnc(NCc3c(F)ccc4c3CCO4)n3cnnc23)CC1 [E-Y48] |  |
| 84 |  | c1cc(CNc2ncc(C3CCOCC3)c3nncn23)c2c(c1)OCC2 [SL-ZYE-14] |  |
| 10.7 |  | CS(=O)(=O)N1CCC(c2cnc(NCc3c(F)ccc4c3CCO4)n3cnnc23)CC1 [E-Y13-H] |  |
| 93.9 |  | CC(=O)N1CCC(c2cnc(NCc3ccco3)n3cnnc23)CC1 [E-Y20-H] |  |
| 21 | 2.7 | CC(C)(C)NC(=O)N1CC=C(c2cnc(NCc3c(F)ccc4c3CCO4)n3cnnc23)CC1 [E-Y18] |  |
| 907 |  | CC(F)(F)C(=O)N1CC=C(c2cnc(NCc3ccco3)n3cnnc23)CC1 [E-Y34] |  |
| 11.9 |  | Fc1ccc2c(c1CNc1ncc(C3CCCOCC3)c3nncn13)CCO2 (stereo not shown) [SL-ZYE-08] |  |
| 1.7 |  | CS(=O)(=O)N1CCC=C(c2cnc(NCc3c(F)ccc4c3CCO4)n3cnnc23)CC1 [SL-E14] |  |
| 334 |  | CS(=O)(=O)N1CC=C(c2cnc(NCc3ccco3)n3cnnc23)CC1 [E-Y22] |  |
